Test results from the supplement of paper PMC10307832.

Legend:
Assay in all cases: relative viability (nuclei count vs DMSO), 5 days (fraction); higher = more cells survive
[1] = compound: C[As](C)SC[C@H](NC(=O)CC[C@H](N)C(=O)O)C(=O)NCC(=O)O [Darinaparsin] + C[C@@H](Oc1cc(-c2cnn(C3CCNCC3)c2)cnc1N)c1c(Cl)ccc(F)c1Cl [Crizotinib] (partner 1 µM)
Summary of the method: (§1)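 The day after seeding in 1536-well plates, lung cancer cell lines were treated by pin tool with a single drug, or with a fixed anchor-drug dose together with five library-drug doses (not always all listed) in √10 steps. After 5 days, a combined fix-and-stain solution (final 0.05% Triton X-100, 1% formaldehyde, 1 ug/ml Hoechst) was added. Nuclei counted on 4× images gave relative viability as treated counts over vehicle counts, reported as the median of duplicate plates.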

[2] = compound: C1CC2=C(C1)C=C(C=C2)OC3=NC(=C4C(=N3)N(C=N4)CC5=CC=C(C=C5)C6=CC=CC=C6)N[C@@H](CC7=CC=CC=C7)CO [QS11] + CS(=O)(=O)N1CCN(Cc2cc3nc(-c4cccc5[nH]ncc45)nc(N4CCOCC4)c3s2)CC1 [Pictilisib] (partner 1 µM)
Summary of the method: as §1

[3] = compound: CC1=C(C=C(C=C1)NC(=O)C2=CC(=CC=C2)C(C)(C)C#N)NC3=CC4=C(C=C3)N=CN(C4=O)C [AZ628] + N=C(N)NC(=N)NCCc1ccccc1 [Phenformin] (partner 250 µM)
Summary of the method: as §1

[4] = compound: CC1=C(C=C(C=C1)NC(=O)C2=CC(=CC=C2)C(C)(C)C#N)NC3=CC4=C(C=C3)N=CN(C4=O)C [AZ628] + O=C(c1cc(Cc2n[nH]c(=O)c3ccccc23)ccc1F)N1CCN(C(=O)C2CC2)CC1 [Olaparib] (partner 8 µM)
Summary of the method: as §1

| Cell Line | relative viability ([1]; first compound 0.08 µM) | relative viability ([1]; first compound 0.8 µM) | relative viability ([1]; first compound 2.53 µM) | relative viability ([1]; first compound 8 µM) | relative viability ([2]; first compound 0.08 µM) | relative viability ([2]; first compound 0.253 µM) | relative viability ([2]; first compound 0.8 µM) | relative viability ([2]; first compound 2.53 µM) | relative viability ([2]; first compound 8 µM) | relative viability ([3]; first compound 0.08 µM) | relative viability ([3]; first compound 0.253 µM) | relative viability ([3]; first compound 0.8 µM) | relative viability ([3]; first compound 2.53 µM) | relative viability ([3]; first compound 8 µM) | relative viability ([4]; first compound 0.08 µM) | relative viability ([4]; first compound 0.253 µM) | relative viability ([4]; first compound 0.8 µM) | relative viability ([4]; first compound 2.53 µM) | relative viability ([4]; first compound 8 µM) |
| --- | --- | --- | --- | --- | --- | --- | --- | --- | --- | --- | --- | --- | --- | --- | --- | --- | --- | --- | --- |
| COR-L23 | 0.818 | 0.648 | 0.601 | 0.661 | 0.807 | 0.717 | 0.806 | 0.662 | 0.681 | 0.54 | 0.476 | 0.433 | 0.445 | 0.333 | 0.459 | 0.365 | 0.444 | 0.448 | 0.317 |
| NCI-H1792 | 1.95 | 0.989 | 0.654 | 1.34 |  | 0.238 | 0.289 | 0.235 | 0.307 | 0.309 | 0.258 | 0.225 | 0.158 | 0.115 | 0.508 | 0.332 | 0.382 | 0.293 | 0.26 |
| A549 | 1.33 | 0.891 | 0.605 | 0.985 | 0.623 | 0.558 | 0.396 | 0.41 | 0.208 | 0.19 | 0.161 | 0.136 | 0.135 | 0.141 | 0.299 | 0.28 | 0.495 | 0.348 | 0.199 |
| HOP-62 | 1.02 | 1.05 | 1.05 | 1.06 | 0.822 | 0.688 | 0.738 | 0.514 | 0.435 | 0.792 | 0.821 | 0.707 | 0.746 | 0.437 | 0.543 | 0.359 | 0.633 | 0.68 | 0.39 |
| NCI-H1437 | 1.23 | 0.865 | 0.716 | 1.32 | 0.421 | 0.468 | 0.38 | 0.41 | 0.399 | 0.369 | 0.266 | 0.262 | 0.331 | 0.318 | 0.584 | 0.605 | 0.767 | 0.597 | 0.54 |
| HCC-366 | 1.26 | 0.523 | 0.265 | 0.828 | 0.138 | 0.133 |  | 0.202 | 0.0869 | 0.585 | 0.572 | 0.554 | 0.598 | 0.499 | 0.358 | 0.31 | 0.263 | 0.271 | 0.192 |
| NCI-H1755 | 1.08 | 0.827 | 0.807 | 1.12 | 0.466 | 0.404 | 0.41 | 0.408 | 0.393 | 0.614 | 0.626 | 0.585 | 0.589 | 0.46 | 0.917 | 0.869 | 0.86 | 0.832 | 0.845 |
| NCI-H3122 | 0.336 | 0.258 | 0.251 | 0.289 | 0.566 | 0.693 | 0.467 | 0.71 | 0.722 | 0.366 | 0.288 | 0.305 | 0.31 | 0.289 | 0.652 | 0.634 | 0.561 | 0.565 | 0.379 |
| ChaGo-K-1 | 1.38 | 1.14 | 0.924 | 1.1 |  | 0.841 | 0.882 | 1.24 | 1.05 | 0.559 | 0.464 | 0.398 | 0.459 | 0.373 | 0.456 | 0.389 | 0.422 | 0.452 | 0.453 |
| SW 1573 | 1.13 | 0.711 | 0.668 | 0.851 | 0.53 | 0.481 | 0.425 | 0.311 | 0.298 | 0.322 | 0.308 | 0.215 | 0.288 | 0.2 | 0.462 | 0.423 | 0.365 | 0.374 | 0.346 |
| NCI-H2085 | 0.936 | 0.858 | 0.768 | 0.9 | 0.432 | 0.404 | 0.456 | 0.432 | 0.519 | 0.83 | 0.662 | 0.784 | 0.636 | 0.583 | 0.805 | 0.756 | 0.895 | 0.865 | 0.703 |
| NCI-H727 | 0.713 | 0.786 | 0.77 | 0.988 | 0.355 | 0.304 | 0.407 | 0.279 | 0.229 | 0.422 | 0.386 | 0.374 | 0.329 | 0.341 | 0.603 |  |  | 0.506 | 0.333 |
| NCI-H2405 | 0.911 | 0.787 | 0.755 | 0.873 | 0.393 | 0.412 | 0.468 | 0.756 | 0.567 | 0.153 | 0.202 | 0.229 | 0.235 | 0.24 | 0.661 | 0.792 | 0.572 | 0.646 | 0.555 |
| NCI-H1666 | 0.904 | 0.927 | 1.02 | 1.14 | 0.328 | 0.359 | 0.377 | 0.474 | 0.423 | 0.584 | 0.582 | 0.543 | 0.518 | 0.514 | 0.733 | 0.745 | 0.671 | 0.739 | 0.782 |
| BEN | 0.956 | 1.01 | 0.741 | 1.17 | 0.554 | 0.641 | 0.529 | 0.524 | 0.705 | 0.265 | 0.331 | 0.268 | 0.27 | 0.231 | 1.26 | 0.912 | 0.995 | 1.03 | 1.02 |
| NCI-H1650 | 1.14 | 0.98 | 0.795 | 1.17 | 0.671 | 0.458 | 0.584 | 0.584 | 0.524 | 0.537 | 0.403 | 0.33 | 0.333 | 0.335 | 0.839 | 0.866 | 0.847 | 0.766 | 0.909 |
| HARA | 1.46 | 1.05 | 0.783 | 1.27 | 0.358 | 0.46 |  | 0.383 | 0.36 | 0.527 | 0.402 | 0.409 | 0.465 | 0.376 | 0.762 | 0.764 | 0.869 | 0.84 | 0.51 |
| RERF-LC-KJ | 1.01 | 0.925 | 0.791 | 0.96 | 0.628 | 0.563 | 0.506 | 0.517 | 0.497 | 0.432 | 0.424 | 0.392 | 0.401 | 0.31 | 0.807 | 0.925 | 1.01 | 1.01 | 0.865 |
| NCI-H1975 | 1.13 | 1.12 | 0.879 | 1.42 | 0.289 | 0.234 | 0.327 | 0.364 | 0.478 | 0.421 | 0.388 | 0.403 | 0.384 | 0.215 | 0.613 | 0.674 | 0.616 | 0.749 | 0.392 |
| EPLC-272H | 1.02 | 0.529 | 0.649 | 0.89 | 0.372 | 0.347 | 0.298 | 0.387 | 0.274 | 0.419 | 0.37 | 0.363 | 0.302 | 0.2 | 0.492 | 0.663 | 0.603 | 0.568 | 0.452 |
| HCC-15 | 0.931 | 0.743 | 0.784 | 1.06 | 0.732 | 0.868 |  | 0.816 | 0.719 | 0.479 | 0.4 | 0.366 | 0.417 | 0.224 | 0.712 | 0.747 | 0.737 | 0.738 | 0.53 |
| COR-L 105 | 0.745 | 0.687 |  | 0.866 | 0.346 | 0.359 | 0.34 | 0.372 | 0.347 | 0.541 | 0.483 | 0.4 | 0.488 | 0.323 | 0.754 | 0.83 | 0.704 | 0.684 | 0.816 |
| NCI-H1915 | 1.06 | 0.839 | 0.795 | 1.13 | 0.958 | 0.932 |  | 0.896 | 0.937 | 0.404 | 0.388 | 0.374 | 0.351 | 0.233 | 0.256 | 0.229 | 0.232 | 0.26 | 0.168 |
| NCI-H2347 | 0.709 | 0.703 | 0.747 | 0.696 | 0.537 | 0.715 | 0.699 | 0.606 | 0.666 | 0.267 | 0.392 | 0.493 | 0.324 | 0.205 | 0.516 | 0.537 | 0.506 | 0.594 | 0.43 |
| EKVX | 1.22 | 0.935 | 0.813 | 1.23 | 0.444 | 0.379 |  | 0.413 | 0.467 | 0.241 | 0.222 | 0.187 | 0.232 | 0.211 | 0.926 | 0.768 | 0.947 | 0.914 | 0.79 |
| LC-2-ad | 0.524 | 0.459 | 0.447 | 0.383 | 0.506 | 0.478 | 0.441 | 0.534 | 0.547 | 0.606 | 0.562 | 0.556 | 0.49 | 0.532 | 0.712 | 0.646 | 0.823 | 0.736 | 0.681 |
